Assays:
Meloidogyne incognita [1] = experiment: Meloidogyne test (Test Example 5, infected soil, lettuce); assay type: in vivo; details: active compound concentration 5 ppm; lettuce root galls
Procedure: (§1) Test nematode: Meloidogyne incognita
Solvent: 4 parts by weight of acetone
(§2) Emulsifier: 1 part by weight of alkylaryl polyglycol ether
(§3) To produce a suitable preparation of active compound, 1 part by weight of active compound is mixed with the stated amount of solvent and the stated amount of emulsifier is added and the concentrate is diluted with water to the desired concentration.
(§4) The active compound preparation is intimately mixed with soil which is heavily infected with the test nematodes. The treated soil is transferred into pots, lettuce seeds are sown and the pots are kept in the greenhouse.
(§5) After the desired time the lettuce roots are checked for infestation with nematodes (root galls) and the efficacy of the active compound in % is determined. The efficacy is 100% when infestation is avoided completely and 0% when infestation level is just as high as in the control plants in untreated but equally infested soil.

[2] = tested on: southern root-knot nematodes; experiment: Test on root-knot nematodes (soil pot test, tomato); assay type: in vivo; details: active ingredient 50 ppm in infested soil; tomato plants; after 4 weeks
Procedure: Fine granular formulations were prepared by impregnating 99 parts of pumice with 1 part each of active compounds.
Each of the active compounds prepared in the above-described manner was added to soil infested with southern root-knot nematodes so as to give an active ingredient concentration of 50 ppm, and intimately blended therein. This soil was charged into pots having an area of 1/5000 are, and about 20 tomato seeds (of the Kurihara variety) were sown in each pot. Tomato plants were grown in a greenhouse and, after 4 weeks, extracted so as not to injure their roots. Then, the root knot index and the controlling effect for each active compound were determined in the following manner.
0: No knot was formed (perfectly controlled).
1: Knots were formed to a slight degree.
2: Knots were formed to a moderate degree.
3: Knots were formed to a heavy degree.
4: Knots were formed to the heaviest degree (corresponding to no treatment). [formula]
According to the value of the controlling effect, the effectiveness was rated on the following basis.
a: The controlling effect was in the range of 100 to 71%.
b: The controlling effect was in the range of 70 to 50%.
c: The controlling effect was less than 50%.
d: The controlling effect was 0%.

[3] = tested on: Nippostrongylus brasiliensis adult worms; experiment: Test on Nippostrongylus brasiliensis, Lane, adult (acetylcholine esterase activity of incubation medium); assay type: in vivo; details: 100 μg/ml
Procedure: The method was carried out, in accordance with a method described in Parasitol. Res., vol. 73 (1987) 191, Rapson, E. B. et al. N.brasiliensis adult worms are isolated from the small intestine of female Wister rats and in sodium chloride solution ([…]) supplemented with Canesten (2 mg/l) and Sisomycin (20 mg/l). Worms (five male and five female) were incubated, according to the method of Rapson et al, and the incubation medium was adjusted so as to give final concentrations of 100 μg/ml. The resulting incubation medium was for acetylcholine esterase activity, as performed by Rapso et al. using a scale 0-3 where 0=no activity (<50% enzyme inhibition) and 1, 2 and 3 weak, good and full activity (50-75, >75 and 100% enzyme inhibition, respectively).

[4] = tested on: Trichinella spiralis larvae; experiment: Test on Trichinella spiralis, Owen, larvae; assay type: in vivo; details: 100 μg/ml; incubated at 19° C. for five days
Procedure: The method was carried out, in accordance with a method described in Tropenmed. Parasitol., vol. 32 (1981), 31-34, Jenkins, D. C., and Carrington, T. S. T. spiralis larvae were isolated from skeletal muscles and diaphragms of SPF/CFW1 mice and stored in sodium chloride solution ([…]) supplemented with Canested (20 μg/ml). The larvae (20 per estimation) were incubated in 2 ml of a solution with the following composition: Casitone 20; yeast extract 10; glucose 5; potassium dihydrogen phosphate 0.8; dipotassium hydrogen phosphate 0.8 g/l in water (500 ml; pH 7.2) and supplemented with Sisomycin (10 mg/l) and Canesten (1 mg/l).
The test compound (10 mg) was dissolved in dimethylsulfoxide (0.5 ml) and added to the incubation medium containing the larvae to give final concentrations of 100 μg/ml. The mixture was incubated at 19° C. for five days, after which activity was assessed according to Jenkins and Carrington a scale 1-3 where 1=weak activity (fewer live larvae than in the untreated control); 2=good activity (>=50% more dead larvae than in the untreated control) and 3=full activity (all larvae dead).

Meloidogyne incognita [5] = experiment: Meloidogyne test (Test Example 6, infected soil, lettuce); assay type: in vivo; details: active compound concentration 20 ppm, lettuce root galls
Procedure: as §1
Solvent: 31 parts by weight of acetone
as §2, §3, §4, §5

C=C(C)C(=O)n1nc(-c2ccc(Cl)cc2)cc1-c1cccs1
kill (%) (Meloidogyne incognita [1]): 100%

FC(F)(F)Oc1ccc(-c2cc(-c3cccs3)[nH]n2)cc1 [Compound 26]
Evaluation (controlling effect from root knot index) [2]: a (The controlling effect was in the range of 100 to 71%.)

1-acetyl-3-(4-chlorophenyl)-5-(2-thienyl)-1H-pyrazole and 1-acetyl-3-(2-thienyl)-5-(4-chlorophenyl)-1H-pyrazole [Compound 58]
Evaluation (controlling effect from root knot index) [2]: a (The controlling effect was in the range of 100 to 71%.)

CSCc1c(-c2ccc(Cl)cc2)n[nH]c1-c1cccs1 [Compound 49, 3-(4-Chlorophenyl)-4-methylmercaptomethyl-5-(2-thienyl)-1H-pyrazole]
Evalution (acetylcholine esterase inhibition, scale 0-3) [3]: 3 (1, 2 and 3 weak, good and full activity (50-75, >75 and 100% enzyme inhibition, respectively)) | Evolution (activity, scale 1-3) [4]: 2 (2=good activity (>=50% more dead larvae than in the untreated control))

COc1ccc(-c2cc(-c3cccs3)n[nH]2)cc1 [compound 2, 3-(2-Thienyl)-5-(4-methoxyphenyl)-1H-pyrazole, reference compound]
Evaluation (controlling effect from root knot index) [2]: d (The controlling effect was 0%.)

Fc1ccc(-c2cc(-c3cccs3)[nH]n2)cc1 [Compound 6, 3-(4-fluorophenyl)-5-(2-thienyl)-1H-pyrazole]
Evalution (acetylcholine esterase inhibition, scale 0-3) [3]: 3 (1, 2 and 3 weak, good and full activity (50-75, >75 and 100% enzyme inhibition, respectively)) | Evolution (activity, scale 1-3) [4]: 2 (2=good activity (>=50% more dead larvae than in the untreated control)) | Evaluation (controlling effect from root knot index) [2]: a (The controlling effect was in the range of 100 to 71%.)

c1ccc(-c2cc(-c3cccs3)n[nH]2)cc1 [compound 1, 3-(2-Thienyl)-5-phenyl-1H-pyrazole, reference compound]
Evaluation (controlling effect from root knot index) [2]: c (The controlling effect was less than 50%.)

CCc1c(-c2ccc(Cl)cc2)n[nH]c1-c1cccs1 [Compound 46]
Evalution (acetylcholine esterase inhibition, scale 0-3) [3]: 3 (1, 2 and 3 weak, good and full activity (50-75, >75 and 100% enzyme inhibition, respectively)) | Evolution (activity, scale 1-3) [4]: 2 (2=good activity (>=50% more dead larvae than in the untreated control))

Clc1ccc(-c2cc(-c3cccs3)[nH]n2)cc1 [Compound 7, 3-(4-chlorophenyl)-5-(2-thienyl)-1H-pyrazole]
melting point: 217 °C | Evaluation (controlling effect from root knot index) [2]: a (The controlling effect was in the range of 100 to 71%.)

Ic1ccc(-c2cc(-c3cccs3)[nH]n2)cc1 [Compound 9]
Evalution (acetylcholine esterase inhibition, scale 0-3) [3]: 3 (1, 2 and 3 weak, good and full activity (50-75, >75 and 100% enzyme inhibition, respectively)) | Evaluation (controlling effect from root knot index) [2]: a (The controlling effect was in the range of 100 to 71%.)

CC(C)(C)c1ccc(-c2cc(-c3cccs3)[nH]n2)cc1
melting point: 61 to 65 °C

CCc1ccc(-c2cc(-c3cccs3)[nH]n2)cc1 [Compound 11]
Evaluation (controlling effect from root knot index) [2]: a (The controlling effect was in the range of 100 to 71%.)

Fc1cccc(F)c1-c1cc(-c2cccs2)[nH]n1
kill in % after 14 d (Meloidogyne incognita [5]): 100%

CCCc1c(-c2ccc(Cl)cc2)n[nH]c1-c1cccs1
melting point: 129 to 132 °C

From patent US6605730B2, “Intermediates for nematicidal pyrazoles” (priority 1998, dated 2003)
